Laboratory results: ChEMBL document CHEMBL1287704, “Synthesis and biological evaluation of novel leonurine-SPRC conjugate as cardioprotective agents” (Bioorg Med Chem Lett, 2010)
The source made the active and inactive calls. The calls are words filed in the database; no cut-off is given here.

Assays:
Assay type in all cases: functional, cell-based
[1] = Cardioprotective activity against hypoxia-induced neonatal rat ventricular myocytes damage assessed as increase in hydrogen sulfide level at 1 uM treated 12 hrs before hypoxia challenge measured after 5 hrs; conditions: Ventricular myocyte
Ventricular myocyte [2] = experiment: Cardioprotective activity against hypoxia-induced neonatal rat ventricular myocytes damage assessed as increased cell viability at 1 uM treated 12 hrs before hypoxia challenge measured after 5 hrs by MTT assay
[3] = Cardioprotective activity against hypoxia-induced neonatal rat ventricular myocytes damage assessed as decrease of LDH release at 1 uM treated 12 hrs before hypoxia challenge measured after 5 hrs; conditions: Ventricular myocyte
[4] = Cardioprotective activity against hypoxia-induced neonatal rat ventricular myocytes damage assessed as decrease of creatine kinase release at 1 uM treated 12 hrs before hypoxia challenge measured after 5 hrs; conditions: Ventricular myocyte
Ventricular myocyte [5] = experiment: Cardioprotective activity against hypoxia-induced neonatal rat ventricular myocytes damage assessed as increased cell viability at 0.1 uM treated 12 hrs before hypoxia challenge measured after 5 hrs by MTT assay
[6] = Cardioprotective activity against hypoxia-induced neonatal rat ventricular myocytes damage assessed as decrease of LDH release at 0.1 uM treated 12 hrs before hypoxia challenge measured after 5 hrs; conditions: Ventricular myocyte
[7] = Cardioprotective activity against hypoxia-induced neonatal rat ventricular myocytes damage assessed as decrease of creatine kinase release at 0.1 uM treated 12 hrs before hypoxia challenge measured after 5 hrs; conditions: Ventricular myocyte
[8] = Cardioprotective activity against hypoxia-induced neonatal rat ventricular myocytes damage assessed as increase in hydrogen sulfide level at 0.1 uM treated 12 hrs before hypoxia challenge measured after 5 hrs; conditions: Ventricular myocyte
[9] = Cardioprotective activity against hypoxia-induced neonatal rat ventricular myocytes damage assessed as increase in superoxide dismutase activity against 0.1 uM treated 12 hrs before hypoxia challenge measured after 5 hrs; conditions: Ventricular myocyte
[10] = Cardioprotective activity against hypoxia-induced neonatal rat ventricular myocytes damage assessed as decrease in malondialdehyde level at 0.1 uM treated 12 hrs before hypoxia challenge measured after 5 hrs; conditions: Ventricular myocyte
[11] = Antiapoptotic activity against hypoxia-induced neonatal rat ventricular myocytes damage assessed as decrease in nuclear condensation at 0.1 uM using Hoechst 33258 staining by fluorescence microscopy; conditions: Ventricular myocyte
[12] = Antiapoptotic activity against hypoxia-induced neonatal rat ventricular myocytes damage assessed as decrease in nuclei-shrunk at 0.1 uM using Hoechst 33258 staining by fluorescence microscopy; conditions: Ventricular myocyte
Ventricular myocyte [13] = experiment: Cardioprotective activity against hypoxia-induced neonatal rat ventricular myocytes damage assessed as increased cell viability at 10 uM treated 12 hrs before hypoxia challenge measured after 5 hrs by MTT assay
[14] = Cardioprotective activity against hypoxia-induced neonatal rat ventricular myocytes damage assessed as decrease of LDH release at 10 uM treated 12 hrs before hypoxia challenge measured after 5 hrs; conditions: Ventricular myocyte
[15] = Cardioprotective activity against hypoxia-induced neonatal rat ventricular myocytes damage assessed as decrease of creatine kinase release at 10 uM treated 12 hrs before hypoxia challenge measured after 5 hrs; conditions: Ventricular myocyte
[16] = Cardioprotective activity against hypoxia-induced neonatal rat ventricular myocytes damage assessed as increase in hydrogen sulfide level at 10 uM treated 12 hrs before hypoxia challenge measured after 5 hrs; conditions: Ventricular myocyte

Row | SMILES | Activity [1] | Activity (Ventricular myocyte [2]) | Activity [3] | Activity [4] | Activity (Ventricular myocyte [5]) | Activity [6] | Activity [7] | Activity [8] | Activity [9] | Activity [10] | Activity [11] | Activity [12] | Activity (Ventricular myocyte [13]) | Activity [14] | Activity [15] | Activity [16]
1 | COc1cc(C(=O)OCCCCNC(=N)N)cc(OC)c1O | inactive | Active | Active | Active |  |  |  |  |  |  |  |  |  |  |  | 
2 | C#CCSC[C@H](N)C(=O)Oc1c(OC)cc(C(=O)OCCCCNC(=N)N)cc1OC |  | Active | Active | Active | Non-toxic | Active | Active | 21.5 µmol/L | Active | Active | Active | Active | Active | Active | Active | 
3 | C#CCSC[C@H](N)C(=O)O |  |  |  |  |  |  |  |  |  |  |  |  | Active | Active | Active | 20.2 µmol/L
